Data on two compounds can be found in US7291630B2, “Azaindoles as inhibitors of c-Jun N-terminal kinases” (Eisai Co., Ltd., priority 2002, dated 2007).

pIC50: −log10 of the molar value.

This assay has as its target JNK3 kinase (Homo sapiens, UniProt P53779). The assay is described as follows: JNK3 SPA assay (phosphorylation of GST-c-Jun). Conditions: 3.33 μM ATP, GST-c-Jun substrate, 30 minutes at room temperature. The format is biochemical. How it is done:
JNK1, JNK2, JNK3—SPA Assay
A typical assay for testing the activity of compounds to inhibit JNK1, JNK2 and JNK3 enzymes is as follows: • 1. Compound is dissolved in DMSO to a convenient concentration and this is diluted in 10% DMSO to a five times concentrate of the desired starting concentration (frequently 1:100). • 2. 10 μl of 500 mM EDTA is added to alternative wells of the Opti-plate row, which will receive kinase reaction plus DMSO. This creates the negative control. • 3. For the JNK2 and JNK3 assay, compounds are prepared in six 2-fold dilutions with water and each concentration is tested in duplicate. For the JNK1 assay compounds are prepared in four 5-fold dilutions with water which are tested in triplicate. Controls are treated identically. • 4. 20 μl per well of each compound concentration is transferred to an Opti-plate, in duplicate. • 5. 30 μl (JNK2/3 SPA) or 50 μl (JNK1 SPA) of substrate solution (25 mM HEPES pH 7.5, 10 mM magnesium acetate with 3.33 μM ATP (JNK2/3) or 2 μM ATP (JNK1), approximately 7.5 kBq [γ-33P] ATP, GST-c-Jun, in water) is added to each well. • 6. 50 μl (JNK2/3 SPA) or 30 μl (JNK1 SPA) of kinase solution (JNK in 25 mM HEPES pH 7.5, 10 mM Mg Acetate) is added to each well.
• 7. […] Plates are sealed and incubated for 30 minutes at room temperature, centrifuged for 10 minutes at 2500 g and counted. • 10. […]

JNK3 kinase, sequence (P53779 whole entry): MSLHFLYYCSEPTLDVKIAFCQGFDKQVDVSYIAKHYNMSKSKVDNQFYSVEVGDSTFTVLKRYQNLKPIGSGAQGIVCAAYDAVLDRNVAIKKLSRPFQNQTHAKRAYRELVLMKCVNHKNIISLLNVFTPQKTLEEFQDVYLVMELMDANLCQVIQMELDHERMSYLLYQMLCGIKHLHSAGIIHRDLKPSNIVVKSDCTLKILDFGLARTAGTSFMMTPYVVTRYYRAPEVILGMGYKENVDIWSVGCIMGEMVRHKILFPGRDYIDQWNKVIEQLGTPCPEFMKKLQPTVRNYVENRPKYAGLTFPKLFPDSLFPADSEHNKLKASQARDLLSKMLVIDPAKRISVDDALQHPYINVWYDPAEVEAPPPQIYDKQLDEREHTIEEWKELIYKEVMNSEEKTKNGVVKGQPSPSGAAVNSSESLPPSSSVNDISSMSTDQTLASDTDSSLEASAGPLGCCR

`CN(C)c1ccc(-c2cnc3[nH]ccc3c2)cc1` [Compound 1] gave a pIC50 of 5.92. To `c1csc(-c2cnc3[nH]ccc3c2)c1` [Compound 2] belongs over 6.30.

For orientation: pIC50 means the negative decadic logarithm of the IC50, by convention in mol/L. A higher pIC50 goes with a small IC50.
